Assay [1] addresses ENPP1 on MDA-MB-231 cells (Homo sapiens (Human), UniProt P22413). In words: Assay 3: inhibition of ENPP1 hydrolysis of AMP p-nitrophenyl ester on MDA-MB-231 cells.
The target of assay [2] is T1, ENPP-1 ECD (Homo sapiens (Human), UniProt P22413). The assay can be described thus: Assay 2: inhibition of ENPP1 hydrolysis of 2′,3′-cGAMP (AMP-Glo, […] enzyme). The following applies: inhibition of ENPP1 hydrolysis of 2′,3′-cGAMP, no unit in Table 18 (Table 17 legend for this assay uses nM).
T1 sequence (P22413 98-925): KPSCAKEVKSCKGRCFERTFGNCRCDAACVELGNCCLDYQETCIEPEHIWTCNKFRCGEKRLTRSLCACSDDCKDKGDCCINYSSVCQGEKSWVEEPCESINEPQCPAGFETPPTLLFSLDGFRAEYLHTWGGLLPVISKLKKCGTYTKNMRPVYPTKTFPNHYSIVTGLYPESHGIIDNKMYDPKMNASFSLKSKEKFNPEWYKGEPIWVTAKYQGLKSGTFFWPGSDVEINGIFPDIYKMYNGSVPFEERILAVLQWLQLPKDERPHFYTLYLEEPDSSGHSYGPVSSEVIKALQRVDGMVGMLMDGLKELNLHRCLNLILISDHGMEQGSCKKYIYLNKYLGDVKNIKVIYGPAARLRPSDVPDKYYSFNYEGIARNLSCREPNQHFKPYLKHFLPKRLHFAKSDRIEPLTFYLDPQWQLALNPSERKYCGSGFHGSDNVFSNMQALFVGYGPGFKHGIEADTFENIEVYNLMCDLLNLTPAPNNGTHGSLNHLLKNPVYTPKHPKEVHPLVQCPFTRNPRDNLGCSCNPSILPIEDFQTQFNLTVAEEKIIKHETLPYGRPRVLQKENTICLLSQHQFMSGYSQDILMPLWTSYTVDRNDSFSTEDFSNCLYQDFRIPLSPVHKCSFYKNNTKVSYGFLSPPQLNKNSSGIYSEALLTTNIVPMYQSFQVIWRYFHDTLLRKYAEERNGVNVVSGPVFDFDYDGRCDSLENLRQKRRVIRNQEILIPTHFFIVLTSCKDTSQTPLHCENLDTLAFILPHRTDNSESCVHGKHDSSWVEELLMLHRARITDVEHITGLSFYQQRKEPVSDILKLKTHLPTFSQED
Protocol: Assay 2: Compared to the conditions in Assay 1, this assay has a larger dynamic range and ensures the system is under steady-state conditions by reducing the enzyme concentration in the assay.
Test compounds were plated in a 3× dilution scheme in a 384 well plate. […] AMP Detection solution (10 μL) was added to each well, the plate centrifuged and incubated for 60 min.
Assay [3] concerns the target T1, ENPP-1 ECD. In words: Assay 1: inhibition of ENPP1 hydrolysis of 2′,3′-cGAMP (AMP-Glo, […] enzyme). To be noted: IC50 in Assay 1, […] ENPP-1 ECD, 24 μM 2,3-cGAMP, pH 8.0.
Protocol: Assay 1: Test compounds were plated in a 3× dilution scheme in a 384 well plate. […] AMP Detection solution (100 μL) was added to each well, the plate centrifuged and incubated for 60 min.
Where [4] appears, read: read-out: Assay 3 (KI, app), apparent KI from IC50 via Cheng/Prusoff, pNP-AMP […], MDA-MB-231 cells, pH 7.4, 37° C., 3 h, unit inferred.

Experimental findings from patent US11780849B2, “Imino sulfanone inhibitors of ENPP1” (Volastra Therapeutics, Inc., priority 2020, dated 2023) are described below.

Like-named read-outs stand apart in the source and are kept apart here. Bounds are passed on as bounds.

Sequence of ENPP1 on MDA-MB-231 cells (P22413 whole entry, the tested form may be a part): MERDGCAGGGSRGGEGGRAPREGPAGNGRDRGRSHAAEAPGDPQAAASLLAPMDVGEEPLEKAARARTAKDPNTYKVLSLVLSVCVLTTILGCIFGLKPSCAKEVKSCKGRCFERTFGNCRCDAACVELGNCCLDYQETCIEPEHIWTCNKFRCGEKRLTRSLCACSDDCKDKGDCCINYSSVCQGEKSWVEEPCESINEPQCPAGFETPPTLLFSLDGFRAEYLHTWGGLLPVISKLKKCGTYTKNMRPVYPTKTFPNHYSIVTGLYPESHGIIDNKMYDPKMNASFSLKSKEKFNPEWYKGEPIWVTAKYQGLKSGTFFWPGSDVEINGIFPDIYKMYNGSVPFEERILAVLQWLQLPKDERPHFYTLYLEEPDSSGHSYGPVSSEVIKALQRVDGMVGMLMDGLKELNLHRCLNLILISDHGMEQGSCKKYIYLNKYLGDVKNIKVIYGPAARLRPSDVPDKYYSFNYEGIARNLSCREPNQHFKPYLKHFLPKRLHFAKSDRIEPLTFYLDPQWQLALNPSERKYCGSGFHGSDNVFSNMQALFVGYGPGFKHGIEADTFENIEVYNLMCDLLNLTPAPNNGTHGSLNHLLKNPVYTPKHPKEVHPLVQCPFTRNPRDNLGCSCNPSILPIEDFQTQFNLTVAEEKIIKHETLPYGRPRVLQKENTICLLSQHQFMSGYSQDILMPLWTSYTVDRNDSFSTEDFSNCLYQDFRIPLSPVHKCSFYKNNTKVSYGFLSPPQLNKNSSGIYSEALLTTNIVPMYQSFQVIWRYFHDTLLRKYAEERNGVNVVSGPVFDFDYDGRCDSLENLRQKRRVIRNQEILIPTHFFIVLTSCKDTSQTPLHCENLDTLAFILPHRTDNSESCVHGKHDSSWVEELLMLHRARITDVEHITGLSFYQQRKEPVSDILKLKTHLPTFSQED

Turning to `COc1cc2ncc(C#N)c(N3CCC4(CC3)CCN(S(C)(=N)=O)C4)c2cc1F` (stereo not shown) [Compound 210, 6-fluoro-4-{2-[imino(methyl)oxo-λ^6-sulfanyl]-2,8-diazaspiro[4.5]decan-8-yl}-7-methoxyquinoline-3-carbonitrile], the Ki in assay [1] came out at 2.5 nM; on ENPP-1 ECD [2] (Assay 2 (KI)), 0.024 nM.
The like results for `COc1cc2nncc(N3CCC4(CC3)CCN(S(C)(=N)=O)C4)c2cc1OC` (stereo not shown) [Compound 211, [8-(6,7-dimethoxycinnolin-4-yl)-2,8-diazaspiro[4.5]decan-2-yl](imino)methyl-λ^6-sulfanone] were, in that order, 0.97 nM and 0.022 nM.
Turning to `COc1cc2nncc(N3CCC4(CC3)CCN([S@](C)(=N)=O)C4)c2cc1OC` [Compound 211a], the Ki in assay [1] (setting [4]) was found to be 2.2 nM; at ENPP-1 ECD [2] (read-out: Assay 2 (KI)), 0.023 nM.
Consider `COc1cc2ncnc(N3CCC4(CC3)CCN(S(C)(=N)=O)C4)c2cc1Cl` (stereo not shown) [Compound 212, [8-(6-chloro-7-methoxyquinazolin-4-yl)-2,8-diazaspiro[4.5]decan-2-yl](imino)methyl-λ^6-sulfanone], for which the Ki came out at 4.4 nM in assay [1] and 0.047 nM on ENPP-1 ECD [2] (Assay 2 (KI)).
Consider `COc1cc2nc(C)nc(N3CCC4(CC3)CCN(S(C)(=N)=O)C4)c2cc1OC` (stereo not shown) [Compound 213, [8-(6,7-dimethoxy-2-methylquinazolin-4-yl)-2,8-diazaspiro[4.5]decan-2-yl](imino)methyl-λ^6-sulfanone], for which the Ki in assay [1] was 2.8 nM; on ENPP-1 ECD [2] (Assay 2 (KI)), 0.058 nM.
On to `COc1cccc2c(N3CC4(CCN(S(C)(=N)=O)C4)C3)ncnc12` (stereo not shown) [Compound 217, imino[2-(8-methoxyquinazolin-4-yl)-2,6-diazaspiro[3.4]octan-6-yl]methyl-λ^6-sulfanone], for which the results for the Ki (in assay [1]; at ENPP-1 ECD [2] (Assay 2 (KI))) were 8 nM and 0.29 nM, respectively.
The like results for `COc1cc2nccc(N3CCC4(CC3)CCN(S(=N)(=O)C3CC3)C4)c2cc1F` (stereo not shown) [Compound 218, {cyclopropyl[8-(6-fluoro-7-methoxyquinolin-4-yl)-2,8-diazaspiro[4.5]decan-2-yl]imino-λ^6-sulfanyl}one] were, in that order, 0.69 nM and 0.022 nM.
Consider `COc1cc2nccc(N3CCC4(CC3)CCN([S@@](=N)(=O)C3CC3)C4)c2cc1F` [Compound 218a], for which the Ki in assay [1] (setting [4]) amounted to 0.29 nM; at ENPP-1 ECD [2] (read-out: Assay 2 (KI)), 0.0078 nM.
The like results for `COc1cc2nncc(N3CCC4(CC3)CCN([S@](C)(=N)=O)C4)c2cc1Cl` [Compound 219a] were, in that order, 1.2 nM and 0.071 nM.
As to `COc1cc2nnc(C)c(N3CCC4(CC3)CCN(S(C)(=N)=O)C4)c2cc1Cl` (stereo not shown) [Compound 220, [8-(6-chloro-7-methoxy-3-methylcinnolin-4-yl)-2,8-diazaspiro[4.5]decan-2-yl](imino)methyl-λ^6-sulfanone], the Ki in assay [1] came out at 11 nM; at ENPP-1 ECD [2] (Assay 2 (KI)), 0.25 nM.
The like results for `CCS(=N)(=O)N1CCC2(CCN(c3ncnc4cc(OC)c(F)cc34)CC2)C1` (stereo not shown) [Compound 221, ethyl[8-(6-fluoro-7-methoxyquinazolin-4-yl)-2,8-diazaspiro[4.5]decan-2-yl]imino-λ^6-sulfanone] were, in that order, 4.6 nM and 0.12 nM.
As to `COc1cccc2c(N3CC4(CCN(S(C)(=N)=O)C4)C3)c(C#N)cnc12` (stereo not shown) [Compound 222, 4-{6-[imino(methyl)oxo-λ^6-sulfanyl]-2,6-diazaspiro[3.4]octan-2-yl}-8-methoxyquinoline-3-carbonitrile], the Ki came to 1.1 nM in assay [1] and 0.07 nM on ENPP-1 ECD [2] (Assay 2 (KI)).
For `COc1cccc2c(N3CC4(CCN([S@@](C)(=N)=O)C4)C3)c(C#N)cnc12` [Compound 222a], the Ki in assay [1] (setting [4]) worked out at 1.2 nM; on ENPP-1 ECD [2] (read-out: Assay 2 (KI)) it was 0.034 nM.
For the compound `COc1cccc2c(N3CCC4(C3)CN(S(C)(=N)=O)C4)ncnc12` (stereo not shown) [Compound 223, imino[6-(8-methoxyquinazolin-4-yl)-2,6-diazaspiro[3.4]octan-2-yl]methyl-λ^6-sulfanone], the Ki in assay [1] was 3.2 nM; on ENPP-1 ECD [2] (Assay 2 (KI)) it was 0.11 nM.
Take `COc1cccc2c(N3CCC4(C3)CN([S@](C)(=N)=O)C4)ncnc12` [Compound 223a]: the figures for the Ki (in assay [1] (setting [4]); on ENPP-1 ECD [2] (read-out: Assay 2 (KI))) were 3.1 nM and 0.047 nM, respectively.
The like results for `COc1cccc2c(N3CCC4(C3)CN([S@@](C)(=N)=O)C4)ncnc12` [Compound 223b] were, in that order, 460 nM and 19 nM.
Consider `COc1cc2ncnc(N3CCC4(CC3)CCN(S(C)(=N)=O)C4)c2cc1F` (stereo not shown) [Compound 224, [8-(6-fluoro-7-methoxyquinazolin-4-yl)-2,8-diazaspiro[4.5]decan-2-yl](imino)methyl-λ^6-sulfanone], for which the Ki in assay [1] turned out to be 1.1 nM; at ENPP-1 ECD [2] (Assay 2 (KI)), 0.019 nM.
The like results for `COc1cc2nncc(N3CCC4(CC3)CCN(S(=N)(=O)C3CC3)C4)c2cc1Cl` (stereo not shown) [Compound 225, {[8-(6-chloro-7-methoxycinnolin-4-yl)-2,8-diazaspiro[4.5]decan-2-yl](cyclopropyl)imino-λ^6-sulfanyl}one] were, in that order, 6.8 nM and 0.096 nM.
As for `COc1cc2nccc(N3CCC4(CC3)CCN(S(C)(=N)=O)C4)c2cc1C#N` (stereo not shown) [Compound 226, 4-{2-[imino(methyl)oxo-λ^6-sulfanyl]-2,8-diazaspiro[4.5]decan-8-yl}-7-methoxyquinoline-6-carbonitrile], the Ki in assay [1] is 43 nM; on ENPP-1 ECD [2] (Assay 2 (KI)), 1.2 nM.
The like results for `COc1cc2ncc(F)c(N3CCC4(CC3)CCN(S(C)(=N)=O)C4)c2cc1OC` (stereo not shown) [Compound 227, [8-(3-fluoro-6,7-dimethoxyquinolin-4-yl)-2,8-diazaspiro[4.5]decan-2-yl](imino)methyl-λ^6-sulfanone] were, in that order, 0.51 nM and 0.018 nM.
In the case of `COc1cc2nnc(C)c(N3CCC4(CC3)CCN(S(C)(=N)=O)C4)c2cc1OC` (stereo not shown) [Compound 228, [8-(6,7-dimethoxy-3-methylcinnolin-4-yl)-2,8-diazaspiro[4.5]decan-2-yl](imino)methyl-λ^6-sulfanone], the values for the Ki (in assay [1]; on ENPP-1 ECD [2] (Assay 2 (KI))) were 8.7 nM and 0.25 nM, respectively.
As for `COc1cc2nccc(OC[C@@H]3CCN([S@](C)(=N)=O)C3)c2cc1F` [Compound 229b], the figures for the Ki (in assay [1] (setting [4]); at ENPP-1 ECD [2] (read-out: Assay 2 (KI))) were 3.6 nM and 0.37 nM, respectively.
Take `COc1cc2nccc(OC[C@H]3CCN([S@@](C)(=N)=O)C3)c2cc1F` [Compound 230b]: the Ki was found to be 6.6 nM in assay [1] (setting [4]) and 0.38 nM at ENPP-1 ECD [2] (read-out: Assay 2 (KI)).
As to `COc1ccc2c(COc3ccc(S(C)(=N)=O)cc3)ccnc2c1` (stereo not shown) [Compound 231, imino({4-[(7-methoxyquinolin-4-yl)methoxy]phenyl})methyl-λ^6-sulfanone], the Ki worked out at 56 nM in assay [1] and 1.2 nM at ENPP-1 ECD [2] (Assay 2 (KI)).
The like results for `COc1cccc2c(N3CCC4(CC3)CN(S(C)(=N)=O)C4)ncnc12` (stereo not shown) [Compound 236, imino[7-(8-methoxyquinazolin-4-yl)-2,7-diazaspiro[3.5]nonan-2-yl]methyl-λ^6-sulfanone] were, in that order, > 580 nM and 86 nM.
The like results for `COc1cc2ncnc(N3CC4(CC(CS(C)(=N)=O)C4)C3)c2cc1OC` (stereo not shown) [Compound 237] were, in that order, 1.2 nM and 0.028 nM.
On to `COc1cc2ncnc(N3CC4(CC(C[S@](C)(=N)=O)C4)C3)c2cc1OC` [Compound 237b], for which the Ki amounted to 0.17 nM in assay [1] (setting [4]) and 0.005 nM on ENPP-1 ECD [2] (read-out: Assay 2 (KI)).
In the case of `COc1cccc2c(N3CC[C@H](C[S@@](C)(=N)=O)C3)ncnc12` [Compound 238a], the Ki in assay [1] (setting [4]) is 260 nM; on ENPP-1 ECD [2] (read-out: Assay 2 (KI)), 66 nM.
Take `COc1cccc2c(N3CC[C@@H](CS(C)(=N)=O)C3)ncnc12` (stereo partly drawn) [Compound 239, imino({[(3R)-1-(8-methoxyquinazolin-4-yl)pyrrolidin-3-yl]methyl})methyl-λ^6-sulfanone]: the Ki in assay [1] stood at 15 nM; on ENPP-1 ECD [2] (Assay 2 (KI)), 0.81 nM.
For the compound `COc1cccc2c(N3CC[C@@H](C[S@](C)(=N)=O)C3)ncnc12` [Compound 239a], the Ki in assay [1] (setting [4]) worked out at 5.4 nM; at ENPP-1 ECD [2] (read-out: Assay 2 (KI)), 0.43 nM.
Regarding `COc1cc2ncnc(N3CCC4(CC3)CCN(S(=N)(=O)CC(C)(C)O)C4)c2cc1OC` (stereo not shown) [Compound 240, [8-(6,7-dimethoxyquinazolin-4-yl)-2,8-diazaspiro[4.5]decan-2-yl](2-hydroxy-2-methylpropyl)imino-λ^6-sulfanone], the Ki in assay [1] turned out to be 5.4 nM; on ENPP-1 ECD [2] (Assay 2 (KI)) it was 0.069 nM.
Turning to `COc1cc2ncnc(N3CCC4(CC3)CCN(S(C)(=N)=O)C4)c2cc1OCF` (stereo not shown) [Compound 241, {8-[6-(fluoromethoxy)-7-methoxyquinazolin-4-yl]-2,8-diazaspiro[4.5]decan-2-yl}(imino)methyl-λ^6-sulfanone], the Ki in assay [1] is 1.2 nM; on ENPP-1 ECD [2] (Assay 2 (KI)) it was 0.031 nM.
The like results for `COc1cc2nccc(OCc3cccc(S(=N)(=O)C4CC4)c3)c2cc1F` (stereo not shown) [Compound 244, [cyclopropyl(3-{[(6-fluoro-7-methoxyquinolin-4-yl)oxy]methyl}phenyl)imino-λ^6-sulfanyl]one] were, in that order, 0.55 nM and 0.018 nM.
The like results for `COc1ccc2c(O[C@@H](C)c3cccc(S(C)(=N)=O)c3)ccnc2c1` (stereo partly drawn) [Compound 245, imino({3-[(1S)-1-[(7-methoxyquinolin-4-yl)oxy]ethyl]phenyl})methyl-λ^6-sulfanone] were, in that order, 5.7 nM and 0.23 nM.
For orientation: IC50 means the concentration at which inhibition is half-maximal. Read a high IC50 as lower potency. The compound `COc1cc2ncnc(-c3ccc4c(c3)CN(S(N)(=O)=O)CC4)c2cc1OC` [reference compound] yielded an IC50 against ENPP-1 ECD [3] of 11 nM. Further, the Ki in assay [1] amounted to 23 nM.
